In brackets after ≈: the same amount, converted by molar mass.
How the values were obtained:
[1] = Relative Cmax ratio of Atazanavir in Sprague-Dawley rat at 3 ml/kg,po measured upto 24 hrs by UPLC-MS/MS analysis; assay type: ADME; details: in vivo
[2] = Aqueous stability of the compound in HCL at pH 1 assessed as compound half life measured after 24 hrs by UPLC analysis; assay type: physicochemical; details: for t1/2: buffer, pH 1, 24 h, 24 h; for half-life: aqueous HCl, pH 1
[3] = Ratio of AUC of Atazanavir in Sprague-Dawley rat at 3 ml/kg,po measured upto 24 hrs by UPLC-MS/MS analysis; assay type: ADME; details: in vivo
[4] = Aqueous solubility of compound at pH 1 by UPLC analysis; assay type: physicochemical
[5] = Tmax in Sprague-Dawley rat at 3 ml/kg,po measured upto 24 hrs by UPLC-MS/MS analysis; assay type: ADME; details: in vivo
[6] = Aqueous stability of the compound in acetate buffer at pH 4 assessed as compound half life measured after 24 hrs by UPLC analysis; assay type: physicochemical; details: for t1/2: buffer, pH 4, 24 h, 24 h; for half-life: acetate buffer, pH 4
[7] = Fold ratio of total AUC of Atazanavir in Sprague-Dawley rat at 3 ml/kg,po measured upto 24 hrs by UPLC-MS/MS analysis; assay type: ADME; details: in vivo
[8] = AUClast in Sprague-Dawley rat at 3 ml/kg,po measured upto 24 hrs by UPLC-MS/MS analysis; assay type: ADME; design: time < 24 hrs, dose 3 ml/kg, route po; details: in vivo; for AUC(0-t) at 24 h: Sprague-Dawley, 3 ml/kg; for AUClast: 24 h
[9] = Relative AUC ratio of Atazanavir in Sprague-Dawley rat at 3 ml/kg,po measured upto 24 hrs by UPLC-MS/MS analysis; assay type: ADME; details: in vivo
[10] = Aqueous solubility of compound at pH 4 by UPLC analysis; assay type: physicochemical
[11] = Aqueous stability of the compound in phosphate buffer at pH 6.5 assessed as compound half life measured after 24 hrs by UPLC analysis; assay type: physicochemical; details: for t1/2: buffer, pH 6.5, 24 h, 24 h; for half-life: phosphate buffer, pH 6.5
[12] = Cmax in Sprague-Dawley rat at 3 ml/kg,po measured upto 24 hrs by UPLC-MS/MS analysis; assay type: ADME; design: dose 3 ml/kg, time < 24 hrs, route po; details: in vivo
[13] = Ratio of Cmax/Cmin of Atazanavir in Sprague-Dawley rat at 3 ml/kg,po measured after 24 hrs by UPLC-MS/MS analysis; assay type: ADME; details: in vivo
[14] = aqueous medium, read-out: solubility

| Compound | Ratio [1] | Ratio [3] | solubility ([4]; buffer) | Tmax ([5]; Sprague-Dawley, read-out: Tmax) | t1/2 [6] | Ratio [7] | Ratio [9] | solubility ([10]; buffer) | t1/2 [11] | half-life [2] | solubility [4, 14] | half-life [6] | solubility [10, 14] | half-life [11] | Ratio [13] | AUClast [8] | Cmax ([12]; 24 h) | also measured |
| --- | --- | --- | --- | --- | --- | --- | --- | --- | --- | --- | --- | --- | --- | --- | --- | --- | --- | --- |
| COC(=O)N[C@H](C(=O)N[C@@H](Cc1ccccc1)[C@H](CN(Cc1ccc(-c2ccccn2)cc1)NC(=O)[C@@H](NC(=O)OC)C(C)(C)C)OC(=O)OC(OC(=O)[C@@H](NC(=O)[C@H](N)C(C)C)C(C)C)C(C)C)C(C)(C)C (stereo in doubt; 6g) | – | – | – | – | – | – | – | – | – | > 500 h | > 2.2 mg/mL | 232 h | > 1.2 mg/mL | 6.1 h | – | – | – | – |
| COC(=O)N[C@H](C(=O)N[C@@H](Cc1ccccc1)[C@H](CN(Cc1ccc(-c2ccccn2)cc1)NC(=O)[C@@H](NC(=O)OC)C(C)(C)C)OC(=O)OC(OC(=O)C[C@H](N)Cc1cc(F)c(F)cc1F)C(C)C)C(C)(C)C (stereo in doubt; 3ac) | 1.2 | 3.4 | > 2.4 mg/mL | 3 h | 334.3 h | 27 | 6.1 | 0.96 mg/mL (≈ 926 µM) | 7.4 h | – | – | – | – | – | 36.4 | – | – | AUC(0-t) at 24 h [8]: 8010 nM·h; Cmax ([12]; Sprague-Dawley, 3 ml/kg): 0.989 µM |
| COC(=O)N[C@H](C(=O)N[C@@H](Cc1ccccc1)[C@H](CN(Cc1ccc(-c2ccccn2)cc1)NC(=O)[C@@H](NC(=O)OC)C(C)(C)C)OC(=O)OC(OC(=O)[C@@H](N)C(C)C)C1CCCCC1)C(C)(C)C (stereo in doubt; 4o) | 1.4 | 0.98 | > 2 mg/mL | – | > 500 h | 2.1 | 1.1 | > 1.1 mg/mL | 12.7 h | – | – | – | – | – | – | 406 nM·h | 0.395 µM | Tmax ([5]; po, 24 h): 0.3 h |
| COC(=O)N[C@H](C(=O)N[C@@H](Cc1ccccc1)[C@H](CN(Cc1ccc(-c2ccccn2)cc1)NC(=O)[C@@H](NC(=O)OC)C(C)(C)C)OC(=O)OC(OC(=O)CCN)C(C)C)C(C)(C)C (stereo in doubt; 3aa) | – | – | > 3 mg/mL | – | 376.3 h | – | – | > 2.2 mg/mL | 11.4 h | – | – | – | – | – | – | – | – | t1/2 [2]: 376.3 h |
| COC(=O)N[C@H](C(=O)N[C@@H](Cc1ccccc1)[C@H](CN(Cc1ccc(-c2ccccn2)cc1)NC(=O)[C@@H](NC(=O)OC)C(C)(C)C)OC(=O)OC(OC(=O)CCN)C(C)C)C(C)(C)C (stereo in doubt; 3z) | 6.9 | 0 | – | 1.3 h | – | 8.7 | 8.7 | – | – | > 500 h | > 1.7 mg/mL | 334 h | > 1.5 mg/mL | 10.1 h | 1309.3 | – | – | AUC(0-t) at 24 h [8]: 7 nM·h; Cmax ([12]; Sprague-Dawley, 3 ml/kg): 0.006 µM |
| CCC(C)C(OC(=O)O[C@@H](CN(Cc1ccc(-c2ccccn2)cc1)NC(=O)[C@@H](NC(=O)OC)C(C)(C)C)[C@H](Cc1ccccc1)NC(=O)[C@@H](NC(=O)OC)C(C)(C)C)OC(=O)[C@@H](N)C(C)C (stereo in doubt; 4k) | 3.7 | 1.34 | – | – | 334.4 h | 7.5 | 3.2 | > 2.6 mg/mL | 13.4 h | – | – | – | – | – | 1631.7 | 1658 nM·h | 1.84 µM | – |
| COC(=O)N[C@H](C(=O)N[C@@H](Cc1ccccc1)[C@H](CN(Cc1ccc(-c2ccccn2)cc1)NC(=O)[C@@H](NC(=O)OC)C(C)(C)C)OC(=O)OC(OC(=O)C[C@H](N)Cc1cc(F)c(F)cc1F)C(C)C)C(C)(C)C (stereo in doubt; 3ab) | – | – | > 0.96 mg/mL | – | – | – | – | – | – | > 500 h | – | 376 h | > 0.91 mg/mL | 8.9 h | – | – | – | – |
| COC(=O)N[C@H](C(=O)N[C@@H](Cc1ccccc1)[C@H](CN(Cc1ccc(-c2ccccn2)cc1)NC(=O)[C@@H](NC(=O)OC)C(C)(C)C)OC(=O)OC(OC(=O)[C@@H](N)C(C)C)C(C)(C)C)C(C)(C)C (stereo in doubt; 4m) | 1.9 | 0.01 | > 1.2 mg/mL | – | – | 2 | 2 | > 1 mg/mL | 23.7 h | – | – | – | – | – | 721.4 | 6 nM·h | 0.027 µM | Tmax ([5]; po, 24 h): 0.3 h |
| CN[C@H](C(=O)OC(OC(=O)O[C@@H](CN(Cc1ccc(-c2ccccn2)cc1)NC(=O)[C@@H](NC(=O)OC)C(C)(C)C)[C@H](Cc1ccccc1)NC(=O)[C@@H](NC(=O)OC)C(C)(C)C)C(C)C)C(C)C (stereo in doubt; 5f) | 2.1 | 0.59 | > 2 mg/mL | – | > 500 h | 7 | 4.4 | > 1.9 mg/mL | 2.87 h | – | – | – | – | – | 194.1 | 996 nM·h | 0.382 µM | Tmax ([5]; po, 24 h): 0.7 h |
| CCC(C)C(OC(=O)O[C@@H](CN(Cc1ccc(-c2ccccn2)cc1)NC(=O)[C@@H](NC(=O)OC)C(C)(C)C)[C@H](Cc1ccccc1)NC(=O)[C@@H](NC(=O)OC)C(C)(C)C)OC(=O)[C@@H](N)C(C)C (mixture of isomers) | 3.8 | 0.68 | – | 0.3 h | – | 4.6 | 2.8 | – | 27.3 h | > 500 h | > 2.1 mg/mL | > 500 h | > 1.5 mg/mL | – | – | 724 nM·h | 0.805 µM | – |

The next lines start with results.

| Ratio [1] | Ratio [3] | solubility ([4]; buffer) | Tmax ([5]; Sprague-Dawley, read-out: Tmax) | t1/2 [6] | Ratio [7] | Ratio [9] | solubility ([10]; buffer) | t1/2 [11] | half-life [2] | solubility [4, 14] | half-life [6] | solubility [10, 14] | half-life [11] | Ratio [13] | AUClast [8] | Cmax ([12]; 24 h) | Compound | also measured |
| --- | --- | --- | --- | --- | --- | --- | --- | --- | --- | --- | --- | --- | --- | --- | --- | --- | --- | --- |
| 2.9 | 0.13 | > 1.48 mg/mL | 0.3 h | 59 h | 2.4 | 2.1 | > 1.6 mg/mL | 5.9 h | – | – | – | – | – | – | – | – | COC(=O)N[C@H](C(=O)N[C@@H](Cc1ccccc1)[C@H](CN(Cc1ccc(-c2ccccn2)cc1)NC(=O)[C@@H](NC(=O)OC)C(C)(C)C)OC(=O)OC(OC(=O)[C@@H](N)CC(C)C)C(C)C)C(C)(C)C (stereo in doubt; 3u) | t1/2 [2]: 136.8 h; AUC(0-t) at 24 h [8]: 105 nM·h; Cmax ([12]; Sprague-Dawley, 3 ml/kg): 0.182 µM |
| 2.1 | 0 | – | – | 136.8 h | 1.3 | 1.3 | – | 12 h | – | > 1.4 mg/mL | – | > 1.1 mg/mL | – | 304.4 | – | – | COC(=O)N[C@H](C(=O)N[C@@H](Cc1ccccc1)[C@H](CN(Cc1ccc(-c2ccccn2)cc1)NC(=O)[C@@H](NC(=O)OC)C(C)(C)C)OC(=O)OC(OC(=O)[C@@H](N)CC(C)C)C(C)C)C(C)(C)C (stereo in doubt; 3t) | t1/2 [2]: > 500 h |
| 5.3 | 0.01 | – | 0.4 h | – | 5.6 | 5.6 | – | – | > 500 h | > 1.3 mg/mL | 376 h | > 1.8 mg/mL | 16.3 h | 389.4 | 15 nM·h | 0.019 µM | COC(=O)N[C@H](C(=O)N[C@@H](Cc1ccccc1)[C@H](CN(Cc1ccc(-c2ccccn2)cc1)NC(=O)[C@@H](NC(=O)OC)C(C)(C)C)OC(=O)OC(OC(=O)[C@H](N)C(C)C)C(C)C)C(C)(C)C (stereo in doubt; 5i) | – |
| 2.3 | 3.09 | > 1.7 mg/mL | – | 30.4 h | 7.3 | 1.8 | > 1.8 mg/mL | 2.7 h | – | – | – | – | – | 1505 | 2129 nM·h | 1.9 µM | COC(=O)N[C@H](C(=O)N[C@@H](Cc1ccccc1)[C@H](CN(Cc1ccc(-c2ccccn2)cc1)NC(=O)[C@@H](NC(=O)OC)C(C)(C)C)OC(=O)OC(OC(=O)[C@H](C)N)C(C)C)C(C)(C)C (stereo in doubt; 3q) | t1/2 [2]: 125.4 h; Tmax ([5]; po, 24 h): 0.3 h |
| 0.9 | 0.06 | – | 0.4 h | – | 0.9 | 0.8 | – | – | 158 h | > 1.6 mg/mL | 41.8 h | > 2.4 mg/mL | 3.6 h | – | 19 nM·h | 0.034 µM | COC(=O)N[C@H](C(=O)N[C@@H](Cc1ccccc1)[C@H](CN(Cc1ccc(-c2ccccn2)cc1)NC(=O)[C@@H](NC(=O)OC)C(C)(C)C)OC(=O)OC(OC(=O)[C@H](C)N)C(C)C)C(C)(C)C (stereo in doubt; 3p) | – |
| 3.4 | 0 | – | – | – | 3.6 | 3.6 | – | 10.6 h | > 500 h | > 2.6 mg/mL | > 500 h | > 2.5 mg/mL | – | 761.7 | – | – | COC(=O)N[C@H](C(=O)N[C@@H](Cc1ccccc1)[C@H](CN(Cc1ccc(-c2ccccn2)cc1)NC(=O)[C@@H](NC(=O)OC)C(C)(C)C)OC(=O)OC(OC(=O)[C@@H](N)C(C)C)C(C)C)C(C)(C)C (stereo in doubt; 3r) | – |

From ChEMBL document CHEMBL5137093, “Improving Drug Delivery While Tailoring Prodrug Activation to Modulate Cmax and Cmin by Optimization of (Carbonyl)oxyalkyl Linker-Based Prodrugs of Atazanavir” (J Med Chem, 2022)
